Measured values as given in patent US20250041236A1, “METHOD FOR SYNTHESIZING GINSENOSIDE RG3-LOADED NANONIOSOMES” (priority 2024, published 2025).

Assay: In vitro release of Rg3 by the dialysis method
Format: physicochemical
Conditions: after 24 hours, PBS pH 7.4, 37° C.
Procedure: To estimate the Rg3-loaded nanoniosome's in vitro drug release profile, 1 mL of the formulation was placed inside a dialysis bag and then immersed in a PBS solution (maintained at 37° C. and a pH of 7.4) with constant stirring. The PBS solution surrounding the dialysis bag (which contained released Rg3) was extracted at different time intervals for 24 hours, and the absorbance intensity was measured at 203 nm. The quantity of Rg3 measured in the medium is divided by the starting amount of Rg3 in the formulation to determine the amount of Rg3 released.

SMILES: CC(C)=CCC[C@](C)(O)[C@H]1CC[C@]2(C)[C@@H]1[C@H](O)C[C@@H]1[C@@]3(C)CC[C@H](O[C@@H]4O[C@H](CO)[C@@H](O)[C@H](O)[C@H]4O[C@@H]4O[C@H](CO)[C@@H](O)[C@H](O)[C@H]4O)C(C)(C)[C@@H]3CC[C@]12C [Ginsenoside Rg3]
- release of the loaded drug: 24.78%
